Activity calls are given as the source filed them. The calls are words filed in the database; no cut-off is given here.

Consider one molecule from ChEMBL document CHEMBL1123805, “Synthesis of certain nucleoside methylenediphosphonate sugars as potential inhibitors of glycosyltransferases” (J Med Chem, 1987).

For experiment [1], the system named is Vero. Put plainly: In vitro antiviral activity was evaluated against vero cell lines infected with herpes simplex virus type-2; non toxic at concentrations as high as 50000 uM. The conditions noted are these: Chlorocebus sabaeus. Type of experiment: functional, cell-based.
Experiment [2] has as its system WIL2. Put plainly: In vitro antitumor activity was evaluated against human B-lymphoblastic leukemia cell lines; None = no activity. The class given is functional, cell-based.
Experiment [3] deals with Vero. The experiment in a line: In vitro antiviral activity was evaluated against vero cell lines infected with visna virus; non toxic at concentrations as high as 50000 uM. Type of experiment: functional, cell-based. The conditions noted are these: Chlorocebus sabaeus.
For experiment [4], the system named is Vero. Put plainly: In vitro antiviral activity was evaluated against vero cell lines infected with influenza virus; non toxic at concentrations as high as 50000 uM. Type of experiment: functional, cell-based. The following applies: Chlorocebus sabaeus.
Experiment [5] has as its system Vero. The experiment in a line: In vitro antiviral activity was evaluated against vero cell lines infected with rhino virus; non toxic at concentrations as high as 50000 uM. Type of experiment: functional, cell-based. The following applies: Chlorocebus sabaeus.
The species entered for experiment [6] is Mus musculus. Put plainly: Glycosyltransferase inhibitory activity up to a concentration of 50 ug/mL; Without significant activity.
The subject of experiment [7] is L1210. The experiment in a line: In vitro antitumor activity was evaluated against L1210 leukemia cell lines; None = no activity. Type of experiment: functional, cell-based. The conditions noted are these: Mus musculus.
For experiment [8], the system named is Vero. The experiment in a line: In vitro antiviral activity was evaluated against vero cell lines infected with Parainfluenza virus type 3; non toxic at concentrations as high as 50000 uM. Type of experiment: functional, cell-based. The following applies: Chlorocebus sabaeus.
Experiment [9] has as its system CCRF-CEM. Put plainly: In vitro antitumor activity was evaluated against human T-lymphoblastic leukemia cell lines; None = no activity. The class given is functional, cell-based.
Experiment [10] concerns Vero. The experiment in a line: In vitro antiviral activity was evaluated against vero cell lines infected with adenovirus type 2; non toxic at concentrations as high as 50000 uM. Type of experiment: functional, cell-based. The conditions noted are these: Chlorocebus sabaeus.

`Nc1ncnc2c1ncn2C1O[C@H](COP(=O)(O)CP(=O)(O)OC2O[C@H](CO)[C@@H](O)[C@H](O)[C@H]2O)[C@@H](O)[C@H]1O` (stereo not given in full): the result in experiment [1], in [3], in experiment [4], in experiment [5], in experiment [8] and in [10] was inactive. The Cytotoxiciy entry in experiment [2], in experiment [7] and in [9] was “None” each time. Besides, the Activity result in experiment [6] is reported as “Without significant activity”.
